Values quoted from earlier work as cited in patent publication US10945961B2, “Method using enteric-coated etidronate for treating calcification, hypercalcaemia, and calcinosis of the brain and other organs” (ZY YTHERAPEUTICS LLC, priority 2017, dated 2021).
Entries after “also recorded” stand apart in the source; their conditions may differ.

Key:
[1] = tested on: patients with brain calcifications (Fahr's Disease)
[2] = in vitro
[3] = for plasma half-life: comparison of first- with 2nd and 3rd generation bisphosphonates
[4] = animal studies
[5] = preclinical studies; immediate-release

Row | SMILES | symptomatic effect (seizures, headaches, Parkinsonian symptoms) ([1]; patients with brain calcification) | size of intracerebral calcifications ([1]; patients, finding of Loeb) | affinity for solid-phase calcium phosphate [2] | plasma half-life [3] [h] | metabolism ([3]; in vivo) | amount of drug absorbed after an oral dose ([3]; oral dose, immediate-release) [%] | absorbed dose excreted in urine ([3]; within 24 hours, fraction of the absorbed dose) | bone clearance estimates [4] | crossing of the blood-brain barrier [5]
1 | CC(O)(P(=O)(O)O)P(=O)(O)O [disodium etidronate, 1-hydroxyethane 1,1-diphosphonic acid] | reduction in seizures and headaches; also recorded: symptomatic improvement of seizures, headaches, and Parkinsonian symptoms | does not reduce the size of intracerebral calcifications | high affinity | 6 | not metabolized | 3 | approximately half | up to 165 days | does not significantly cross the blood-brain barrier
2 | O=P(O)(O)C(O)(Cn1ccnc1)P(=O)(O)O [zolendronic acid] |  |  |  | 146 |  |  |  |  | 
